Patent US20040028675A1, “Compositions for the treatment of lupus” (Zarlink Semiconductor AB, priority 2001, published 2004)
One block for each molecule: values may come before it.

How the values were obtained:
Kv1.3 channel [1] = target: T1, Kv1.3 channel (Homo sapiens, UniProt P22001); assay: Screening tests of ion channel function; details: screening tests by experts in ion channel function
[2] = system: patients with Lupus (Systemic Lupus Erythematosus); assay: Treatment of patients with Lupus (SLE) with the inventive composition
Kv1.3 channel [3] = target: T1, Kv1.3 channel; details: independently demonstrated; cited from earlier work
[4] = system: patients with Lupus (Systemic Lupus Erythematosus); details: osteoarthritis or Lupus caused joint inflammation; cited from earlier work

T1 sequence (P22001 whole entry): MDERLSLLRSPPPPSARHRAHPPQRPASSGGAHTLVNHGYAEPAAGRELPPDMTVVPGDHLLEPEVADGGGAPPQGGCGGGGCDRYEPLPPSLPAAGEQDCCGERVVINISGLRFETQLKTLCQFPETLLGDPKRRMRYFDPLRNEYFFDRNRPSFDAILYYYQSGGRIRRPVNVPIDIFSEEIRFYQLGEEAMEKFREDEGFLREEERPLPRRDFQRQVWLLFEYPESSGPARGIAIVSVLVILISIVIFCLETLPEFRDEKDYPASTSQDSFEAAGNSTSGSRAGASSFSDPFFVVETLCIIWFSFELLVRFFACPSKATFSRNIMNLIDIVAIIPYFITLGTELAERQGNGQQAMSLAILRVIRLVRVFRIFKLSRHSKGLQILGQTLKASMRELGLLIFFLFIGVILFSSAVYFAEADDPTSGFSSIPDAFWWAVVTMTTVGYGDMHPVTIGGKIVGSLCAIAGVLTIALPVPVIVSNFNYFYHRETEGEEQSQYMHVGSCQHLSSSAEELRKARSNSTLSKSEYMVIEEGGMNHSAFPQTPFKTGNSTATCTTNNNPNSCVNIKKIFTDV

effectiveness in tests of ion channel function (Kv1.3 channel [1]): even more effective than Quercetin
Molecule: O=c1cc(-c2ccc(O)c(O)c2)oc2cc(O)cc(O)c12 [Luteolin]
effectiveness of the bioflavonoid in the inventive formula (in place of Quercetin) ([2]; limited tests): somewhat more effective than Quercetin

Molecule: O=c1c(O)c(-c2cc(O)c(O)c(O)c2)oc2cc(O)cc(O)c12 [Myricetin]
effectiveness of the bioflavonoid in the inventive formula (in place of Quercetin) ([2]; human, in vivo): somewhat effective

effectiveness in tests of ion channel function (Kv1.3 channel [1]): very effective
Molecule: O=c1c(O)c(-c2ccc(O)c(O)c2)oc2cc(O)cc(O)c12 [Quercetin]
modulating the conduction by the Kv1.3 potassium channel (Kv1.3 channel [3]): very effective

Molecule: Bromelain
ameliorating joint pain, Bromelain alone [4]: not effective
